Measured values as given in US10259772B2, “Agents for maintaining undifferentiated state and promoting proliferation of stem cells” (NIPPON MENARD COSMETIC CO., LTD., priority 2014, dated 2019).

Key:
Format in all cases: cell-based
[1] = tested on: murine embryonic stem cells (murine ES cells); test: Evaluation of undifferentiated state-maintaining effect on stem cells (Nanog gene expression, real-time PCR); conditions: final concentration 0.001%, 3 days of culture, Nanog/Gapdh relative expression at onset of culture defined as 100% undifferentiation, no addition control 25
Excerpt: Using a medium prepared by adding fetal bovine serum (FBS, 15%, manufactured by Sigma-Aldrich Co. LLC), a nucleoside solution (100 times dilution, manufactured by Sumitomo Dainippon Pharma Co., Ltd.), a non-essential amino acids solution (100 times dilution, manufactured by Sumitomo Dainippon Pharma Co., Ltd.), a β2-mercaptoethanol solution (100 times dilution, manufactured by Sumitomo Dainippon Pharma Co., Ltd.), an L-glutamine solution (100 times dilution, manufactured by Sumitomo Dainippon Pharma Co., Ltd.), penicillin (100 units/mL, manufactured by Sigma-Aldrich Co. LLC), and streptomycin (100 μg/mL, manufactured by Sigma-Aldrich Co. LLC) to Dulbecco's Modified Eagle Medium (manufactured by Gibco), 5×10^5 cells of murine embryonic stem cells (murine ES cells: manufactured by COSMO BIO Co., Ltd.) were seeded in a 6 cm dish coated with gelatin (manufactured by Sigma-Aldrich Co. LLC), one or a mixture of fatty acid glycerides 1 to 9 was added to the medium at a final concentration of 0.001%, and culture was continued for 3 days.
After 3 days of culture, cells were collected and washed twice with PBS(−) and RNA was extracted from the cells with Trizol Reagent (Invitrogen). Extracted RNA was reverse-transcripted to cDNA using 2-STEP real-time PCR kit (Applied Biosystems) and then real-time PCR (95° C.: 15 seconds, 60° C.: 30 seconds, 40 cycles) was performed by AB17300 (Applied Biosystems) using the following primer sets to confirm the gene expression of Nanog (undifferentiation marker: Cell Res. 2007 January; 17 (1): 42-9. Review. Nanog and transcriptional networks in embryonic stem cell pluripotency. Pan G, Thomson J A.). Other operations were conducted according to a determined procedure.
The undifferentiated state-maintaining effect was evaluated as follows: the value of the relative gene expression level of Nanog (Nanog gene expression level/Gapdh gene expression level) calculated as the ratio of the Nanog mRNA expression level to the Gapdh mRNA expression level, which is an internal standard, in murine ES cells at the onset of culture was defined as 100% undifferentiation; and relative thereto, the value of the relative gene expression level of Nanog in the ES cells after 3 days of culture was calculated and evaluated.

human somatic stem cells [2] = test: In vitro wound healing test (scratch assay); conditions: final concentration 0.001%, 100 × area of scratch region at 48 hours / area at 0 hours, no addition control 61
Method: The scratch assay (JP Publication (Kokai) No. 2013-18756), which is generally conducted as a method for evaluating the efficacy to promote wound healing, was conducted. Specifically, 5×10^5 cells of human somatic stem cells were seeded in a 3.5 cm dish, cultured using human stem cell culture medium to confluency, and then the bottom of the dish was scratched with the end of a sterilized tip to generate a gap in the cell sheet. Subsequently, the medium was changed to a medium supplemented with one or a mixture (fatty acid glycerides 2+3, fatty acid glycerides 4+5) of fatty acid glycerides 1 to 9 at a final concentration of 0.001% and the percent recovery of the cell gap was evaluated 48 hours later. To obtain the same area under a phase contrast microscope when obtaining images before and after the recovery, a mark that can be used as a reference point is provided near the scratch.
The scratch region 48 hours later was calculated as [scratch region 48 hours later]=100× [area of scratch region at 48 hours]/[area of scratch region at 0 hours] using a commercially available image analysis software. These test results are illustrated in Table 4 below.

human somatic stem cells [3] = test: Evaluation of proliferation-promoting effect on stem cells (cell count); conditions: 72 h, final concentration 0.001%, 3 days of culture, number of cells in no addition group (control) defined as 100%, read-out: Percent cell proliferation (%)
Method: 3×10^5 cells of human somatic stem cells (manufactured by DS Pharma Biomedical Co., Ltd.) cultured using a human stem cell culture medium (manufactured by Toyobo Co., Ltd.) were seeded in a 6 cm dish, one or a mixture (fatty acid glycerides 2+3, fatty acid glycerides 4+5) of fatty acid glycerides 1 to 9 was added at a final concentration of 0.001%, and culture was continued for 3 days. When a mixture of two fatty acid glycerides was used, the ratio thereof was 1:1 (weight ratio).
After 3 days of culture, cells were washed three times with PBS(−), then collected with a rubber policeman, and cells were counted for each culture.
The total number of cells without addition of fatty acid glycerides was defined as control and the control was defined as 100(%). Increase or decrease (%) of the number of cells with addition of fatty acid glycerides was calculated and the stem cell proliferation-promoting effect was evaluated.

Row | SMILES | Nanog expression level (%) after 3 days of culturing [1] [%] | Scratch region 48 hours later (%) (human somatic stem cells [2]) | activity at 0.001 % (human somatic stem cells [3]) [%]
1 | CCCCCCCCC=CCCCCCCCC(=O)OCC(O)COC(=O)CCCCCCCC=CCCCCCCCC (stereo not drawn) [Fatty acid glyceride 6, 1,3-Diolein] | 43 | 44 | 130
2 | CCCCCCCCCCCCCCCC(=O)OCC(COC(=O)CCCCCCCCCCCCCCC)OC(=O)CCCCCCCCCCCCCCC [Tripalmitin, reference compound] | 26 | 59 | 103
3 | CCCCCCCC/C=C\CCCCCCCC(=O)OCC(COC(=O)CCCCCCC/C=C\CCCCCCCC)OC(=O)CCCCCCC/C=C\CCCCCCCC [Fatty acid glyceride 8, Triolein] | 35 | 52 | 118
4 | CCCCCC=CCC=CCCCCCCCC(=O)OCC(O)CO (stereo not drawn) [Fatty acid glyceride 1, 1-Monolinolein] | 33 | 54 | 115
5 | CCCCCC=CCC=CCCCCCCCC(=O)OCC(O)COC(=O)CCCCCCCCCCCCCCC (stereo not drawn) [Fatty acid glyceride 2, 1-Palmitin-3-linolein] | 71 | 30 | 160
6 | CCCCCC=CCC=CCCCCCCCC(=O)OCC(O)COC(=O)CCCCCCCC=CCC=CCCCCC (stereo not drawn) [Fatty acid glyceride 3, 1,3-Dilinolein] | 65 | 32 | 158
7 | CCCCCC=CCC=CCCCCCCCC(=O)OC(CO)COC(=O)CCCCCCCCCCCCCCC (stereo not drawn) [Fatty acid glyceride 7, 1-Palmitin-2-linolein] | 41 | 45 | 129
8 | CCCCCC=CCC=CCCCCCCCC(=O)OCC(O)COC(=O)CCCCCCCC=CCCCCCCCC (stereo not drawn) [Fatty acid glyceride 4, 1-Olein-3-linolein] | 59 | 38 | 148
9 | CCCCCCCCCCCCCCCC(=O)O [Palmitic acid, reference compound] | 27 | 60 | 102
10 | CCCCCC=CCC=CCCCCCCCC(=O)OCC(COC(=O)CCCCCCCC=CCC=CCCCCC)OC(=O)CCCCCCCC=CCC=CCCCCC (stereo not drawn) [Fatty acid glyceride 9, Trilinolein] | 34 | 53 | 117
11 | CCCCCC=CCC=CCCCCCCCC(=O)OCC(O)COC(=O)CCCCCCCCCCCCCCCCC (stereo not drawn) [Fatty acid glyceride 5, 1-Stearin-3-linolein] | 57 | 40 | 145
